Measured values as given in EP4509511A1, “SUBSTITUTED SPIRO-ISOXAZOLINYL LACTAMS, SALTS THEREOF AND THEIR USE AS HERBICIDALLY ACTIVE SUBSTANCES” (Bayer Aktiengesellschaft, priority 2023, dated 2025).

Experiments:
[1] = test system: ECHCG; assay: Herbicidal pre-emergence action - Part I; type: in vivo, Echinochloa crus-galli; conditions: visual grading after ca. 3 weeks vs untreated controls
How it was run: (§1)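 Pre-emergence soil-surface spray, 1280 g/ha or lower, WP/EC formulations plus 0.5% additive, 600 l/ha water. Pots of sandy loam, double sowing mono/dicot weeds. Greenhouse, optimum conditions; % herbicidal effect scored visually at ~3 wk, 100% = plants died, 0% = as control.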

[2] = test system: POAAN; assay: Herbicidal pre-emergence action - Part I; type: in vivo, Poa annua; conditions: visual grading after ca. 3 weeks vs untreated controls
How it was run: as §1

[3] = test system: MATIN; assay: Herbicidal post-emergence action - Part I; type: in vivo, Matricaria inodora; conditions: one-leaf stage, rated visually after about 3 weeks vs untreated controls
How it was run: (§2)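 Greenhouse weeds grown in sandy loam were sprayed post-emergence at the one-leaf stage, 2-3 weeks after sowing. Compounds were applied as WP or EC in water with 0.5% additive at 600 L/ha, at 1280 g/ha or below. Visual damage was rated after about 3 weeks versus untreated plants (0-100%).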

[4] = test system: KCHSC; assay: Herbicidal post-emergence action - Part I; type: in vivo, Kochia scoparia; conditions: one-leaf stage, rated visually after about 3 weeks vs untreated controls
How it was run: as §2

[5] = test system: ALOMY; assay: Herbicidal pre-emergence action - Part II; type: in vivo, Alopecurus myosuroides; conditions: visual grading after ca. 3 weeks vs untreated controls
Description: (§3) Seeds of mono- and dicotyledonous weed plants and crop plants were sown, in plastic or organic planting pots, in sandy loam and covered with soil. The compounds according to the invention, formulated in the form of wettable powders (WP) or as emulsifiable concentrates (EC), were applied to the surface of the covering soil as aqueous suspension or emulsion, with the addition of 0.5% of an additive, at an application rate of 600 1 of water/ha (converted). Following treatment, the pots were placed in a greenhouse and kept under optimum growth conditions for the test plants. The visual grading of the damage to the test plants was carried out after ca. 3 weeks in comparison to untreated controls (herbicidal effect in percent (%): 100% effect = plants have died off, 0% effect = as control plants). Tables C1 to C12 below show the effects of selected compounds of the general formula (I) according to table 1 on various harmful plants and an application rate corresponding to 320 g/ha or below obtained by the experimental procedure mentioned above. Table C1: pre-emergence activity at 320g/ha against ABUTH in %

[6] = test system: LOLRI; assay: Herbicidal pre-emergence action - Part II; type: in vivo, Lolium rigidum; conditions: 320 g/ha; Table C7
Description: as §3

[7] = test system: ZEAMX; assay: Pre-emergence effects on crop plants; type: in vivo, Zea mays; conditions: crop plant
Description: (§4) Seeds of mono- and dicotyledonous weed plants and crop plants were sown, in plastic or organic planting pots, in sandy loam and covered with soil. The compounds according to the invention, formulated in the form of wettable powders (WP) or as emulsifiable concentrates (EC), were applied to the surface of the covering soil as aqueous suspension or emulsion, with the addition of 0.5% of an additive, at an application rate of 600 1 of water/ha (converted). Following treatment, the pots were placed in a greenhouse and kept under optimum growth conditions for the test plants. The visual grading of the damage to the test plants was carried out after ca. 3 weeks in comparison to untreated controls (herbicidal effect in percent (%): 100% effect = plants have died off, 0% effect = as control plants). Tables D1 to D5 below show the effects of various compounds of the general formula (I) according to Table 1 on various crop plants and an application rate corresponding to 320 g/ha or below obtained by the experimental procedure mentioned above in Biological Examples, Section C. Table […]: pre-emergence activity at 320g/ha against ZEAMX in %

[8] = test system: GLXMA; assay: Pre-emergence effects on crop plants; type: in vivo, Glycine max; conditions: crop plant
Description: as §4

[9] = test system: ZEAMX; assay: Post-emergence effects on crop plants; type: in vivo, Zea mays; conditions: crop plant
How it was run: (§5)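 Crop plants were grown in sandy loam in the greenhouse and sprayed at the single-leaf stage, 2–3 weeks after sowing, with WP or EC formulations plus 0.5% additive in 600 l water/ha, at rates of 320 g/ha or below. Injury was scored visually about 3 weeks later as % effect versus untreated controls (100% = plants dead).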

[10] = test system: TRZAS; assay: Post-emergence effects on crop plants; type: in vivo, Triticum aestivum; conditions: crop plant
How it was run: as §5

[11] = test system: GLXMA; assay: Post-emergence effects on crop plants; type: in vivo, Glycine max; conditions: crop plant
Description: Seeds of mono- and dicotyledonous weed plants and crop plants were sown, in plastic or organic planting pots, in sandy loam, covered with soil and grown in a greenhouse under controlled growth conditions. 2 to 3 weeks after sowing, the test plants were sprayed in the single-leaf stage. The compounds according to the invention, formulated in form of wettable powders (WP) or as emulsifiable concentrates (EC), were sprayed onto the green plant parts as aqueous suspension or emulsion, with the addition of 0.5% of an additive, at an application rate of 600 1 of water/ha (converted). The test plants were placed in the greenhouse for ca. 3 weeks under optimum growth conditions, and then the effect of the preparations was assessed visually in comparison with untreated controls (herbicidal effect in percent (%): 100% effect = plants have died off, 0% effect = as control plants). Tables F1 to F5 below show the effects of selected compounds of the general formula (I) according to table 1 on various crop plants and an application rate corresponding to 320 g/ha or below obtained by the experimental procedure mentioned above. Table […]: post-emergence activity at 5g/ha against ZEAMX in %

SMILES | pre-emergence activity at 320g/ha against ECHCG in % [1] | pre-emergence activity at 1280g/ha against ECHCG in % [1] | pre-emergence activity at 320g/ha and against POAAN in % [2] | pre-emergence activity at 1280g/ha and against POAAN in % [2] | post-emergence activity at 320g/ha against MATIN in % [3] | post-emergence activity at 1280g/ha against MATIN in % [3] | post-emergence activity at 320g/ha against KCHSC in % [4] | post-emergence activity at 1280g/ha against KCHSC in % [4] | pre-emergence activity at 320g/ha against ALOMY in % [5] | pre-emergence activity against LOLRI [6] | pre-emergence activity against ZEAMX ([7]; 80 g/ha, Table D1b) | pre-emergence activity against ZEAMX ([7]; 320 g/ha, Table D1a) | pre-emergence activity against GLXMA ([8]; 80 g/ha, Table D4b) | post-emergence activity against ZEAMX ([9]; 80 g/ha, Table F1c) | post-emergence activity against ZEAMX ([9]; 320 g/ha, Table F1d) | post-emergence activity against TRZAS ([10]; 80 g/ha, Table F2c) | post-emergence activity against TRZAS ([10]; 320 g/ha, Table F2d) | post-emergence activity against GLXMA ([11]; 80 g/ha, Table F4c) | also measured
Cc1ccsc1C1=NOC2(CCCN(Cc3c(F)cccc3F)C2=O)C1 (racemic) [Compound I-2] | 100% | 100% | 100% | 100% | 90% | 90% | 90% | 90% | 90% | 90% | 0% | 0% | 0% | 0% | 20% | 0% | 0% | 0% | pre-emergence activity at 80g/ha and against POAAN in % ([2]; 80 g/ha): 100%
O=C1N(Cc2ccccc2F)CCC12CC(c1c(F)cccc1F)=NO2 (racemic) [Compound I-10] | – | 100% | 90% | 100% | 90% | 90% | 90% | 90% | 80% | 80% | 0% | 0% | 10% | 0% | 0% | 0% | 10% | 0% | –
Cc1ccsc1C1=NOC2(CCN(Cc3c(F)cccc3F)C2=O)C1 (racemic) [Compound I-16, 7-(2,6-Difluorobenzyl)-3-(3-methyl-2-thienyl)-1-oxa-2,7-diazaspiro[4.4]non-2-en-6-one] | 100% | 100% | 100% | 100% | – | 90% | – | 90% | 80% | 100% | 10% | 20% | 10% | 0% | 0% | 0% | 0% | 0% | pre-emergence activity against GLXMA ([8]; Table D4a, title: 320g/ha, application rate: 80 g/ha): 20%; post-emergence activity against GLXMA ([11]; Table F4d, title: 320 g/ha, application rate: 80 g/ha): 0%
